For test [1], the target named is T1, serotonin-2 receptor (Rattus norvegicus, UniProt P14842). The test is described as follows: 5-hydroxytryptophane-induced head twitch test. The class given is in vivo. On the set-up: membrane preparations of frontal/parietal cortex from male Sprague-Dawley rats; from tissue; host or cells: frontal/parietal cortex membranes, male Sprague-Dawley rat. The settings on record: po, 5-HTP induced head twitch, read-out: effective dose in the head twitch test. On the procedure: The head twitch test for assessing central nervous system serotonin-2 receptor antagonism in the rat is described in Neuropharmacology 16, 663 (1977) and in J. Pharmacol. Exp. Ther. 228, 133 (1984). The test is carried out as follows:
Male Wistar rats (120-180 g) are fasted for 18 hours prior to testing but allowed water ad libitum. All animals are pretreated with the peripheral decarboxylase inhibitor alpha-methyl-DOPA hydrazine (carbidopa, 25 mg/kg i.p., 4.0 ml/kg) followed 30 minutes later by 5-hydroxy-tryptophane (5-HTP 100 mg/kg s.c., 4.0 ml/kg). Ninety minutes after receiving 5-HTP, the rats are placed individually in plexiglass observation cages and the frequency of head twitches for each animal is counted over a 10 minute observation period. The test compound or vehicle is administered at either 0.5 hour at 1.0 ml/kg i.p. or at 1, 2 or 4 hours at 10 ml/kg p.o. prior to the observation period. ED50 values are determined by probit analysis.

Test [2] deals with T1, serotonin-2 receptor. Description: biochemical. On the procedure: The serotonin-2 receptor (also named 5-hydroxytryptamine-2 or 5HT-2 receptor) binding properties are determined in vitro by measuring the ability of said compounds to inhibit the specific binding of ^3 H-ketanserin, in membrane preparations of frontal/parietal cortex from male Sprague-Dawley rats essentially as described by Battaglia et al. in Life Sciences 33, 2011 (1983). IC50 values, representing the concentration of compound required to displace 50% of ^3 H-ketanserin, are determined by log-logit analysis of the specific binding data.

Test [3] deals with T1, serotonin-2 receptor. The test is described as follows: in vivo displacement of 3H-spiperone binding in rat brain. On the set-up: serotonin-2 receptors in rat brain; from tissue; host or cells: rat brain, in vivo. The settings on record: ip. On the procedure: In vivo, the compounds according to the present application displace the binding of ^3 H-spiperone to serotonin-2 receptors in rat brain. Illustrative of the invention, the compound of example 1 displaces the binding of ^3 H-spiperone with an ED50 value of about 2 mg/Kg i.p.

T1 sequence (P14842 whole entry): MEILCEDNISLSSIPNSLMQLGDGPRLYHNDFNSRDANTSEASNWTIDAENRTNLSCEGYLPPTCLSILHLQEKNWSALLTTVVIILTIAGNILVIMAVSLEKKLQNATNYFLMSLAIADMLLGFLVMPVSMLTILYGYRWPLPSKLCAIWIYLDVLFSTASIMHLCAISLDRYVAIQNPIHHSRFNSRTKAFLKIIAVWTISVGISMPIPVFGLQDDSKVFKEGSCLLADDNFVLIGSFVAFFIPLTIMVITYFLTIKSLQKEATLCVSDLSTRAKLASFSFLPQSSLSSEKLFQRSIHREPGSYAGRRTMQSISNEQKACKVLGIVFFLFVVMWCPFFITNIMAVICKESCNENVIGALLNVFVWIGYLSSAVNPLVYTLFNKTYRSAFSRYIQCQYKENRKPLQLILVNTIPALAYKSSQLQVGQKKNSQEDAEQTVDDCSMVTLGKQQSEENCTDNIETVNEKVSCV

As a reminder, the IC50 is the midpoint of a concentration-inhibition curve. As for `COC(=O)c1c2n(c3ccccc13)Cc1ccccc1N1CCN(C)CC21` (stereo not drawn) [Example 1, methyl 1,3,4,16b-tetrahydro-2-methyl-2H,10H-indolo[2,1-c]pyrazino[1,2-a][1,4]benzodiazepine-16-carboxylate], the ED50 in test [1] was roughly 3 mg/kg; in test [3] it was roughly 2 mg/kg. Also, the IC50 in test [2] is roughly 4 nM.

For the origin of these results see patent publication US4737496A, “1,3,4,16b-tetra hydro-2H,10H-indolo[2,1-c]pyrazino-[1,2-a][1,4]benzodiazepines useful as serotonin-2 receptor antagonists” (Ciba-Geigy Corporation, priority 1986, dated 1988).
